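Cultured in 96-well plates, cells were exposed to test compound for 48 hours across five concentrations. GI50 is the concentration that inhibits growth by half.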 Active and inactive are the calls of the source. Rule as the data show it: active = GI50 up to about 1.1 µM and inactive = higher.
Tests used:
Test in all cases: NCI-60 cell line screen, 48 h
UO-31 = test system: UO-31
UACC-257 = test system: UACC-257
COLO 205 = test system: COLO 205
MOLT-4 = test system: MOLT-4
RPMI-8226 = test system: RPMI-8226
SF-539 = test system: SF-539
NCI-H23 = test system: NCI-H23
OVCAR-4 = test system: OVCAR-4
SN12C = test system: SN12C
SK-MEL-28 = test system: SK-MEL-28
K562 = test system: K562
A549 = test system: A549
MDA-MB-435 = test system: MDA-MB-435
SK-OV-3 = test system: SK-OV-3
OVCAR-5 = test system: OVCAR-5
HOP-62 = test system: HOP-62
HT-29 = test system: HT-29
HCT-15 = test system: HCT-15
TK-10 = test system: TK-10
UACC-62 = test system: UACC-62

SMILES	GI50 (UO-31)	GI50 (UACC-257)	GI50 (COLO 205)	GI50 (MOLT-4)	GI50 (RPMI-8226)	GI50 (SF-539)	GI50 (NCI-H23)	GI50 (OVCAR-4)	GI50 (SN12C)	GI50 (SK-MEL-28)	GI50 (K562)	GI50 (A549)	GI50 (MDA-MB-435)	GI50 (SK-OV-3)	GI50 (OVCAR-5)	GI50 (HOP-62)	GI50 (HT-29)	GI50 (HCT-15) [µM]	GI50 (TK-10)	GI50 (UACC-62)
C=C(Cl)C(Cl)(CBr)CCC(Cl)C(C)(C)Cl (stereo not given)	2.3 µM (inactive)	1.57 µM (inactive)	4.15 µM (inactive)	17.7 µM (inactive)	0.112 µM (active)	0.443 µM (active)	8.89 µM (inactive)	1.09 µM (active)	7.38 µM (inactive)	1.69 µM (inactive)	2.22 µM (inactive)	2.96 µM (inactive)	2.05 µM (inactive)	25.8 µM (inactive)	2.83 µM (inactive)	1.11 µM (active)	0.331 µM (active)	3.57	1.14 µM (inactive)	–
Oc1cc(Br)cc2cc(Br)cnc12	2.99 µM (inactive)	3.21 µM (inactive)	32.3 µM (inactive)	2.55 µM (inactive)	2.63 µM (inactive)	3.78 µM (inactive)	4.95 µM (inactive)	1.39 µM (inactive)	3.62 µM (inactive)	2.02 µM (inactive)	1.21 µM (inactive)	3.29 µM (inactive)	3.44 µM (inactive)	39.2 µM (inactive)	–	12.3 µM (inactive)	27.5 µM (inactive)	1.13	43 µM (inactive)	2.05 µM (inactive)
CC(=O)/N=C1/N(/C=C2\C(=O)Oc3ccccc3C2=O)C(=O)/C(=C/c2ccc(Cl)cc2Cl)N1C	–	> 100 µM (inactive)	> 100 µM (inactive)	40.7 µM (inactive)	26.4 µM (inactive)	25.6 µM (inactive)	> 100 µM (inactive)	> 100 µM (inactive)	> 100 µM (inactive)	73.8 µM (inactive)	39.4 µM (inactive)	96.6 µM (inactive)	34.2 µM (inactive)	> 100 µM (inactive)	> 100 µM (inactive)	48.3 µM (inactive)	> 100 µM (inactive)	> 100	–	26.2 µM (inactive)
CC(=O)O[C@H]1[C@@H](OC2CCCC2(c2ccccc2)c2ccccc2)O[N+]([O-])=C[C@@]12COCc1cc3c(cc12)OCO3 (stereo not given in full)	4.42 µM (inactive)	18.2 µM (inactive)	> 32.4 µM (inactive)	2.52 µM (inactive)	–	93.3 µM (inactive)	13.2 µM (inactive)	1.49 µM (inactive)	3.78 µM (inactive)	6.78 µM (inactive)	2.92 µM (inactive)	8.57 µM (inactive)	3.66 µM (inactive)	30.1 µM (inactive)	18.7 µM (inactive)	2.99 µM (inactive)	2.77 µM (inactive)	6.37	7.85 µM (inactive)	8.39 µM (inactive)
CCCCCC/C=C\CCCCCCCCC(=O)c1cccc(OC)c1OC	> 100 µM (inactive)	34.4 µM (inactive)	87.3 µM (inactive)	25.7 µM (inactive)	34 µM (inactive)	> 100 µM (inactive)	40.2 µM (inactive)	–	> 100 µM (inactive)	> 100 µM (inactive)	27.5 µM (inactive)	> 100 µM (inactive)	84.7 µM (inactive)	> 100 µM (inactive)	> 100 µM (inactive)	> 100 µM (inactive)	41.9 µM (inactive)	> 100	> 100 µM (inactive)	> 100 µM (inactive)
Cc1ccc(O)c(Cc2nc3ccccc3nc2-c2cccc(Cl)c2)c1	32.1 µM (inactive)	74.6 µM (inactive)	58.6 µM (inactive)	17.3 µM (inactive)	22.5 µM (inactive)	87.1 µM (inactive)	69.3 µM (inactive)	10.6 µM (inactive)	55.2 µM (inactive)	–	28.5 µM (inactive)	43.9 µM (inactive)	21.4 µM (inactive)	> 100 µM (inactive)	> 100 µM (inactive)	> 100 µM (inactive)	44.3 µM (inactive)	15.4	88.9 µM (inactive)	57.9 µM (inactive)
COC(=O)CN1C(=O)C2(C(=O)OC)OC1(c1ccc([N+](=O)[O-])cc1)C1C(=O)N(c3ccccc3)C(=O)C12 (stereo not given)	> 100 µM (inactive)	> 100 µM (inactive)	> 100 µM (inactive)	> 100 µM (inactive)	–	> 100 µM (inactive)	> 100 µM (inactive)	> 100 µM (inactive)	> 100 µM (inactive)	> 100 µM (inactive)	–	> 100 µM (inactive)	> 100 µM (inactive)	> 100 µM (inactive)	> 100 µM (inactive)	> 100 µM (inactive)	> 100 µM (inactive)	> 100	> 100 µM (inactive)	> 100 µM (inactive)
COc1ccc(/N=C(/C[S+]([O-])c2ccc(C)cc2)C(F)(F)F)cc1 (stereo not given)	9.57 µM (inactive)	> 100 µM (inactive)	> 100 µM (inactive)	53.3 µM (inactive)	–	> 100 µM (inactive)	> 100 µM (inactive)	59.7 µM (inactive)	> 100 µM (inactive)	> 100 µM (inactive)	59.7 µM (inactive)	78 µM (inactive)	> 100 µM (inactive)	> 100 µM (inactive)	> 100 µM (inactive)	–	> 100 µM (inactive)	> 100	> 100 µM (inactive)	10.6 µM (inactive)
CCN1CCC(O)(c2ccc(Oc3ccc(F)cc3)cc2)C(C(=O)c2ccc(Oc3ccc(F)cc3)cc2)C1 (stereo not given)	–	15.8 µM (inactive)	16.6 µM (inactive)	14 µM (inactive)	2.79 µM (inactive)	18.5 µM (inactive)	14.8 µM (inactive)	15 µM (inactive)	14.2 µM (inactive)	15.8 µM (inactive)	12.7 µM (inactive)	15 µM (inactive)	16.8 µM (inactive)	17.8 µM (inactive)	15 µM (inactive)	15.8 µM (inactive)	10.6 µM (inactive)	11.5	11 µM (inactive)	14.8 µM (inactive)
CC1=NN(c2nc(N)nc(CSc3nc4n(c(=S)n3)CCN4)n2)C(C)(C)C1	–	> 100 µM (inactive)	38.5 µM (inactive)	> 100 µM (inactive)	> 100 µM (inactive)	44.8 µM (inactive)	47.5 µM (inactive)	> 100 µM (inactive)	–	> 100 µM (inactive)	> 100 µM (inactive)	–	> 100 µM (inactive)	19.1 µM (inactive)	–	14 µM (inactive)	> 100 µM (inactive)	32	74.1 µM (inactive)	43.1 µM (inactive)
O=c1c2cccnc2n2n1Cc1ccccc1C2	> 100 µM (inactive)	> 100 µM (inactive)	–	> 100 µM (inactive)	> 100 µM (inactive)	> 100 µM (inactive)	> 100 µM (inactive)	> 100 µM (inactive)	> 100 µM (inactive)	> 100 µM (inactive)	> 100 µM (inactive)	> 100 µM (inactive)	> 100 µM (inactive)	> 100 µM (inactive)	> 100 µM (inactive)	> 100 µM (inactive)	> 100 µM (inactive)	> 100	> 100 µM (inactive)	> 100 µM (inactive)
CCN(CC)CCCNc1ccc([N+](=O)[O-])c2nc3ccccc3c(N)c12	1.57 µM (inactive)	4.88 µM (inactive)	–	0.302 µM (active)	0.555 µM (active)	0.495 µM (active)	0.828 µM (active)	0.627 µM (active)	0.74 µM (active)	3.98 µM (inactive)	0.478 µM (active)	0.537 µM (active)	1.06 µM (active)	1.51 µM (inactive)	0.802 µM (active)	5.56 µM (inactive)	0.437 µM (active)	0.883	2.12 µM (inactive)	2.75 µM (inactive)
CC(C)=CC(=O)O[C@@H]1CC(C)(C)CC2C3=CCC4[C@]56CC[C@](O)(OC5)C(C)(C)C6CC[C@@]4(C)C3(C)CC[C@]21C(=O)O (stereo not given in full)	–	> 100 µM (inactive)	22.8 µM (inactive)	55.2 µM (inactive)	27.8 µM (inactive)	38.5 µM (inactive)	26.1 µM (inactive)	63.2 µM (inactive)	53.2 µM (inactive)	> 100 µM (inactive)	48 µM (inactive)	33.7 µM (inactive)	> 100 µM (inactive)	> 100 µM (inactive)	> 100 µM (inactive)	64.3 µM (inactive)	38.4 µM (inactive)	31.4	63.1 µM (inactive)	> 100 µM (inactive)
C=CCN1CCN([C@H](c2ccc(C(=O)N(CC)CC)cc2)c2cccc(OC)c2)CC1	> 25 µM (inactive)	–	> 25 µM (inactive)	> 25 µM (inactive)	> 25 µM (inactive)	> 25 µM (inactive)	> 25 µM (inactive)	> 25 µM (inactive)	> 25 µM (inactive)	> 25 µM (inactive)	–	> 25 µM (inactive)	> 25 µM (inactive)	> 25 µM (inactive)	> 25 µM (inactive)	> 25 µM (inactive)	> 25 µM (inactive)	> 25	–	> 25 µM (inactive)
c1cc2c(cc1NC1=NCCO1)CCC2	–	–	> 10 µM (inactive)	> 10 µM (inactive)	> 10 µM (inactive)	3.08 µM (inactive)	> 10 µM (inactive)	> 10 µM (inactive)	> 10 µM (inactive)	> 10 µM (inactive)	9.75 µM (inactive)	> 10 µM (inactive)	8.04 µM (inactive)	> 10 µM (inactive)	–	> 10 µM (inactive)	> 10 µM (inactive)	> 10	> 10 µM (inactive)	> 10 µM (inactive)

From ChEMBL document CHEMBL1201862, “PubChem BioAssay data set” (2004)
